One data set is described as follows: in vitro. Conditions: isolated enzyme neprilysin, pH 8, % remaining analogue. The procedure:
Stock solutions of the oligomers were prepared at a concentration of 400 µM in a solution of 50 mM HEPES buffer, 50 mM NaCl, 0.05% Tween-80, pH 8.0. Stock solution of NEP 24.11 was prepared at a concentration of 100 µg mL^−1 in water. Stability of oligomers to NEP 24.11 was assessed by conducting protease reaction in a 96-well plates at 20 °C. […] Each compound was also incubated in the absence of the enzyme (12 µL of HEPES buffer and 38 µL of oligomer). […] A portion of the quenched reaction solution was analysed by HPLC. The time course of peptide degradation was determined by integrating the area of each peak in a series of HPLC traces.

Data set [1] deals with fasted normal mice (C57BL/6J). The experiment in a line: Intraperitoneal glucose tolerance test (IPGTT) in fasted normal mice. The format is in vivo, mouse. Conditions: for AUC: IPGTT 5 min (Fig 4a), blood glucose AUC 0-120 min. The method, then:
In a second study, an IPGTT was performed 30 min after i.v. injections of 1, 14 and the vehicle (Fig. 4b). […] A further IPGTT study was done with a glucose challenge after 2 h of the dosing to investigate the prolonged activity of hybrids 14, 22 and 23 (Fig. 4c).
Fig. 4 IPGTT studies in mice. a–d Intraperitoneal glucose tolerance test (IPGTT) at different time after dosing in fasted normal mice (C57BL/6J, male, 20–25 g). Dosage: 200 μg kg^−1 (50 nmol kg^−1) i.v. Formulation: 20 μg mL^−1 in PBS 1×. IPGTT: glucose 2 g kg^−1 i.p. at T0. a IPGTT after 5 min (n = 4). b IPGTT after 30 min (n = 6). c IPGTT after 2 h (n = 6). d IPGTT after 4 h (n = 3). Area under the curve (AUC) of the corresponding IPGTT curve. Data are mean ± SEM. […] Source data are provided as a Source Data file
After the acclimation period (at least 5 days), mice (male C57BL/6J mice (Charles River laboratories) 6 weeks old, 20–25 g) were randomized into groups according to their body weight. The mice were fasted for 6 h prior being acutely treated via i.v. route (5 µg per mouse i.v. (200 μg kg^−1, 50 nmol kg^−1)) formulated at 20 µg mL^−1 in PBS 1×. The IPGTTs were performed (glucose 2 g kg^−1 i.p.) 5 min, 30 min, 2 h or 4 h after dosing and blood glucose was measured at different time points after the glucose challenge.

In another data set the target is T1, mouse GLP-1 receptor (Mus musculus, UniProt O35659).
T1 sequence (O35659 22-463): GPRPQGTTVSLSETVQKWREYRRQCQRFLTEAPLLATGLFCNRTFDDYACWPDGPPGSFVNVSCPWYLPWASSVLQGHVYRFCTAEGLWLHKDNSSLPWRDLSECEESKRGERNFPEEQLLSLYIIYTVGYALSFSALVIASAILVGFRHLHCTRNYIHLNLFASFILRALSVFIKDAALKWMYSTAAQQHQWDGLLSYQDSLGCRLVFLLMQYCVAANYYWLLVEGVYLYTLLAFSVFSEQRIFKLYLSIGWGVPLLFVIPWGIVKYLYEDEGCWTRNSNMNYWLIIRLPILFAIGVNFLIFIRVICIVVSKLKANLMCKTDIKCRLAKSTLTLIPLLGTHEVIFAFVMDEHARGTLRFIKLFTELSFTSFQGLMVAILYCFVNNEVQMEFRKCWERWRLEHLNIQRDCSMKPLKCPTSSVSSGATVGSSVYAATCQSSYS

[2] abbreviates: fasted C57BL/6J mice, 200 μg kg−1 (50 nmol kg−1) i.v., glucose 2 g kg−1 i.p., n = 6.

Each structure is given as a SMILES string.

The term amount remaining denotes the share of the starting amount still present when the sample was taken. A lower amount remaining goes with more turnover.

For `CC[C@H](C)[C@H](NC(=O)[C@H](Cc1ccccc1)NC(=O)[C@H](CCC(=O)O)NC(=O)[C@H](CCCCN)NC(=O)[C@H](C)NC(=O)[C@H](C)NC(=O)[C@H](CCC(N)=O)NC(=O)CNC(=O)[C@H](CCC(=O)O)NC(=O)[C@H](CC(C)C)NC(=O)[C@H](Cc1ccc(O)cc1)NC(=O)[C@H](CO)NC(=O)[C@H](CO)NC(=O)[C@@H](NC(=O)[C@H](CC(=O)O)NC(=O)[C@H](CO)NC(=O)[C@@H](NC(=O)[C@H](Cc1ccccc1)NC(=O)[C@@H](NC(=O)CNC(=O)[C@H](CCC(=O)O)NC(=O)CNC(=O)[C@@H](N)Cc1c[nH]cn1)[C@@H](C)O)[C@@H](C)O)C(C)C)C(=O)N[C@@H](C)C(=O)N[C@@H](Cc1c[nH]c2ccccc12)C(=O)N[C@@H](CC(C)C)C(=O)N[C@H](C(=O)N[C@@H](CCCCN)C(=O)NCC(=O)N[C@@H](CCCNC(=N)N)C(=O)NCC(N)=O)C(C)C` [compound 1, GLP-1-G^2 (GG2)], the share remaining at 1 h in the data set “in vitro” was found to be 77.5%. Also, the amount remaining at 2 h in the data set “in vitro” worked out at 63.1%. This compound displayed an amount remaining at 4 h in the data set “in vitro” of 47.1%. This compound gave a fraction remaining at 6 h in “in vitro” of 32.6%. The AUC stood at 21223 mg·min/dL in data set [1] (mean of n = 4, 2018-03-08); 20535 mg·min/dL in data set [1] (single animal, 1st of group); 25208 mg·min/dL in data set [1] (single animal, 2nd of group); 19110 mg·min/dL in data set [1] (single animal, 3rd of group); 20040 mg·min/dL in data set [1] (single animal, 4th of group). The “activity in IPGTT 5 min after dosing” value in data set [1] (fasted C57BL/6J mice, 200 μg kg−1 (50 nmol kg−1) i.v., glucose 2 g kg−1 i.p., n = 4) is listed as “both analogues were active”. Also, in data set [1] (setting [2]), the “activity in IPGTT 30 min after dosing” value was “already inactive”. Further, the “activity in IPGTT 2 h after dosing” value in data set [1] (setting [2]) is listed as “IPGTT curve similar to the vehicle”. Moreover, at mouse GLP-1 receptor, the “LogEC50 (best-fit value)” value is recorded as -9.62. Besides, on mouse GLP-1 receptor (cAMP production, from EC50), the “Potency (%), percentage of potency compare to GLP-1-G^2” value was determined as 100%.

(Values after publication PMC6389962 (Nature Communications, 2019).)
